# According to patent US20110263677A1, “GOS2 MODULATORS IN THE TREATMENT OF ACNE, OF SEBORRHOEIC DERMATITIS OR OF HYPERSEBORRHOEA” (Galderma Research & Development, priority 2008, published 2011):
# Experiments:
# [1] = test system: PPARG (reference gene); assay: Real-time PCR gene expression in rat epidermal split containing sebaceous glands after topical treatment: PPARG; type: in vivo; conditions: topical administration, 0.3% in acetone, 96 hours
# Experimental: (§1) Strain: OFA-SD (SPF Caw),
# (§2) Number per batch: 40 (8 animals per group) Treatment: Route of administration: topical
# (§3) Compound/batch: PPARgamma agonist (rosiglitazone)
# (§4) Method of evaluation: The animals are weighed at the beginning and at the end of the study. Skin biopsies are taken (6 samples of skin excised per rat) in order to analyse the expression of the genes (RNA extraction, reverse transcriptase and real-time PCR). The samples are stored overnight at 4° C. before incubation in 1M sodium bromide (NaBr) for 2 hours at 37° C. After incubation, the samples are separated into epidermis or dermis. The epidermal samples are stored at […]. Under these conditions, the sebaceous glands are in the epidermal split. PCRs are carried out, beginning with the cDNAs originating from the epidermal splits containing sebaceous glands from control rats or rats treated with the PPARγ agonist: the mRNA is extracted using a column and quantified. The quality of mRNAs is measured and is represented by the 18S/28S ratio. The results are standardized with respect to 18S, expressed as relative induction versus untreated animals (carrier group). The statistical analysis is obtained using internal software based on a modified Monte Carlo statistical analysis.
# [2] = test system: PPARG; assay: as above; type: in vivo; conditions: topical administration, 0.3% in acetone, 96 hours, versus carrier group
# Experimental: as §1, §2, §3, §4
# [3] = test system: GOS2; assay: Real-time PCR gene expression in rat epidermal split containing sebaceous glands after topical treatment: GOS2; type: in vivo; conditions: topical administration, 0.3% in acetone, 96 hours
# Experimental: as §1, §2, §3, §4
# [4] = test system: HPRT1 (standardizer 1); assay: Real-time PCR gene expression in rat epidermal split containing sebaceous glands after topical treatment: HPRT1; type: in vivo; conditions: topical administration, 0.3% in acetone, 96 hours
# Experimental: as §1, §2, §3, §4
# [5] = test system: ACTB (standardizer 2); assay: Real-time PCR gene expression in rat epidermal split containing sebaceous glands after topical treatment: ACTB; type: in vivo; conditions: topical administration, 0.3% in acetone, 96 hours
# Experimental: as §1, §2, §3, §4
# [6] = test system: GOS2; conditions: mouse liver; Zandbergen et al., 2005; cited from earlier work
compound,measurement,setting,value
"COCCOCOc1ccc2cc(C(=O)N(C)Cc3cccc(-c4ccc(CC5SC(=O)NC5=O)cc4)c3)ccc2c1 (stereo not drawn) [PPARgamma agonist, 6-(2-methoxyethoxy-methoxy)naphthalene-2-carboxylic acid [4′-(2,4-dioxothiazolidin-5-ylmethyl)biphenyl-3-ylmethyl]methylamide]",Variation versus carrier after standardization (ΔΔCt),[1],0.72
same,Relative induction,[2],1.65
same,Variation versus carrier after standardization (ΔΔCt),[3],2.36
same,Relative induction,[3]; versus carrier group,5.24
same,Variation versus carrier after standardization (ΔΔCt),[4],−0.07
same,Relative induction,[4]; versus carrier group,−1.05
same,Variation versus carrier after standardization (ΔΔCt),[5],0.23
same,Relative induction,[5]; versus carrier group,1.18
Cc1cccc(Nc2cc(Cl)nc(SCC(=O)O)n2)c1C [Wy14643],expression of GOS2 (marker for PPARalpha),[6],induced
